Experimental data reported in patent US20250154212A1, “METHOD OF DISRUPTING MEMORY AND LIPOPEPTIDE FOR USE IN SUCH METHOD” (The Research Foundation for The State University of New York, priority 2023, published 2025).
Entries after “also recorded” stand apart in the source; their conditions may differ. Where no end group is shown, it is not given here. The star is where a group is joined. Myristoyl = CCCCCCCCCCCCCC(=O)*

Target: T1, KIBRA-PKMζ interaction (Homo sapiens, UniProt Q05513)
T1 construct: expressed in transfected cells; host or cells: HEK293T
T1 sequence (Q05513 1-409 isoform Q05513-2): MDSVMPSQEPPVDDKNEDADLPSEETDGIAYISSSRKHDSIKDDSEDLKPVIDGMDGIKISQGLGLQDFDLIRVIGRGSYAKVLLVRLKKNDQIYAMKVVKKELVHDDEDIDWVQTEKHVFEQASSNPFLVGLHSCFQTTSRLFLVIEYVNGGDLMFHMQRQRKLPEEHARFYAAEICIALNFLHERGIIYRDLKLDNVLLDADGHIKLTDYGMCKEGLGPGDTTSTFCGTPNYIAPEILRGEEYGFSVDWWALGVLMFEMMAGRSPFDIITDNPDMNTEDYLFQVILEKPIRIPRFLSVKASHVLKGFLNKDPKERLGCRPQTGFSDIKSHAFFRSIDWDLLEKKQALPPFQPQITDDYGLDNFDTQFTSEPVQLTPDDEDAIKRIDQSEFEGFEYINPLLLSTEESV
Test: BiFC (split-Venus) assay of KIBRA-PKMζ interaction in transfected HEK293T cells
Assay type: cell-based
Details: for effect on KIBRA-PKMζ interaction/dimerization (BiFC): 10 μM
Experimental: KIBRA-PKMζ BiFC was performed as previously described (28), using pVen1-FLAG-KIBRA and pVen2-HA-PKMζ, in which PKMζ was cloned between EcoR1 and BamH1 sites. The constructs pVen1 and pVen2 encode the N-terminus (amino acids 1-154) and C-terminus (amino acids 155-238) of the Venus protein, respectively, and the Venus fragments were on the N-terminal of the fusion proteins. pVen2-HA-PKMζ[PKCι/λ-P291Q;F297S] was generated by site-directed mutagenesis using forward-cctggagAagcAAatceggatcccccggtCcctgtccgte and reverse-gacggacaggGaccgggggatccggatTTgctTctccagg primers and the QuickChange II XL Site-Directed Mutagenesis Kit (Agilent Technologies), following manufacturer's instructions. Additional pVen2-HA-PKC isoforms and pVen2-HA-CaMKIIα in the pVen2-HA vector were generated by cloning the N-terminus of the coding sequence of each kinase (table S1) to obtain an in-frame fusion at the C-terminus of the pVen2-HA. Human versions of KIBRA and kinases were used, and all PCR amplified sequences and constructs were verified by DNA sequencing.
HEK293T cells were cultured in Dulbecco's Modified Eagle's Medium supplemented with 10% heat-inactivated fetal bovine serum, 100 U/ml penicillin, […] streptomycin, 2 mM glutamine, and 10 mM HEPES in a T75 tissue culture flask with canted neck and ventilated cap. Twenty-four hours prior to transfection, 1×10^5 HEK293T cells in 1 ml of media were plated on poly-D-lysine-treated coverslips in 24-well plates. One hour prior to transfection, 0.5 ml of the media was removed from each well, and ζ-stat or K-ZAP was added to the media that had been removed. The remaining media in each well was then discarded and substituted with the 0.5 ml pre-conditioned media containing ζ-stat or K-ZAP at designated concentrations. For transfection a total of 50 ng of DNA was delivered to each well using Lipofectamine 3000 (Invitrogen) and OptiMEM 1× reduced serum medium (Invitrogen) at a plasmid-to-plasmid ratio of 1:1. The amount of transfected DNA was optimized to produce relatively low concentrations of proteins during overexpression. […]

Row | Compound | effect on KIBRA-PKMζ interaction/dimerization (BiFC) (listed as z-stat) | IC50 (dose-response curve, n's=4, read-out: IC50 for inhibition of KIBRA-PKMζ interaction (BiFC)) [nM] | effect on KIBRA-PKMζ interaction/dimerization (BiFC)
1 | O=S(=O)(O)c1cc(O)c2c(S(=O)(=O)O)cc(S(=O)(=O)O)cc2c1 [ζ-stat, 1-naphthol-3,6,8-trisulphonic acid] | inhibits KIBRA interaction with PKMz; also recorded: decreases BIFC | ~1000 | –
2 | myr-N-FVRNSLERRSVRMKRPS-C (Myristoyl-FVRNSLERRSVRMKRPS) [K-ZAP] | – | – | inhibits PKMz-KIBRA dimerization
